In patent US9125388B2, “Biological control” (Isis Innovation Limited, priority 1999, dated 2015):

How the values were obtained:
[1] = test system: Yp3 tTa, tRe Msl-1^Mpu on the 2nd chromosome; assay: Recombinant chromosome experiments: parents raised on supplement, progeny on normal food, adults by sex (25, 18 or 29° C.); assay type: in vivo, Drosophila melanogaster
Protocol: 40-45 young females and 20-25 young males raised at 25° C. upon food with the indicated tetracycline supplement were allowed to mate, then transferred to normal (tetracycline-free) food after 3-4 days. These flies were transferred to fresh vials of normal food every day for 12 days, then removed on the 13th day. All the vials were incubated at 25° C. while the progeny developed. The numbers of male and female progeny emerging as adults in each vial were recorded.
Since there is no meiotic recombination in Drosophila melanogaster males, any of these recombinant chromosomes could be used in a genetic sexing or insect control program, if required.
A standard range of additive concentrations were used in the following experiments (0.05-20 μg/ml). […] (=“not done”)
All the preceding experiments were performed at 25° C., the standard temperature for Drosophila culture. However, the insects in the wild would clearly be exposed to varying temperatures, so we investigated the extent to which the efficiency of the system is affected by temperature. As with the recombinant chromosome experiments, 40-45 young virgin females and 20-25 young males raised at 25° C. upon food with the indicated tetracycline supplement were allowed to mate, then transferred to normal (tetracycline-free) food after 3-4 days. These flies were transferred to fresh vials of normal food every day. The numbers of male and female progeny emerging as adults in each vial were recorded. These experiments were performed at either 18° C. or 29° C.

bnk-tTa × tRe-Nipp1Dm = assay: Tc-repressible lethality using an embryo-specific promoter (Table 2), adult progeny by sex; assay type: in vivo, Drosophila melanogaster; settings: embryos laid on this food for 9 days
Source text: Flies were reared on standard yeast/cornmeal/agar food with a yeast concentration of 45-50 gl^−1. Tc-containing food was made to the same recipe with the addition of tetracycline hydrochloride (Sigma-Aldrich) solution to the appropriate final concentration.
As ectopic Ras64B^V12 apparently lacks embryonic toxicity under the conditions we are using, we placed a different toxic gene under the control of tRe. We chose to use Nipp1Dm, a Drosophila homolog of mammalian NIPP-1, a nuclear inhibitor of protein phosphatase type 1 (Beullens et al., (1992), J. Biol. Chem. 267, 16538-16544; Van Eynde et al., (1995), J Biol Chem 270, 28068-74). NIPP1 has several advantages as a “killer gene” in this system. Flies carrying homozygous insertions of bnk-tTa or tRe-Nipp1 were crossed to each other. […] Furthermore, F1 survival was not affected by the presence or absence of Tc in the media on which the F1 were raised. We have therefore constructed an efficient dominant lethal genetic system repressible by parental dietary Tc.
Males homozygous for bnk-tTa were mated with females homozygous for either tRe-Ras64B^V12 or tRe-Nipp1Dm. These flies were raised on media lacking Tc, but before mating were placed on food containing various concentrations of Tc. They were allowed to lay embryos on this food for 9 days, and then the parents were removed. Their adult progeny of each sex were counted.

[2] = parents raised on tetracycline 0.1 μg/ml, 18° C.
[3] = parents raised on tetracycline 0.1 μg/ml, 29° C.
[4] = parents raised on tetracycline 1 μg/ml, 18° C.
[5] = parents raised on tetracycline 1 μg/ml, 29° C.
[6] = parents raised on tetracycline 5 μg/ml, 18° C.
[7] = parents raised on tetracycline 5 μg/ml, 29° C.
[8] = parents on food containing Tc 0.1 μg/ml
[9] = parents on food containing Tc 1.0 μg/ml

Structure (SMILES): CN(C)[C@@H]1C(O)=C(C(N)=O)C(=O)[C@@]2(O)C(O)=C3C(=O)c4c(O)cccc4[C@@](C)(O)[C@H]3C[C@@H]12 [Tetracycline, tetracycline]
- escapers ([1]; even at low (parental) tetracycline concentrations): < 1%
- Female progeny emerging as adults [1, 2]: 5
- Male progeny emerging as adults [1, 2]: 1303
- Female progeny emerging as adults [1, 3]: 0
- Male progeny emerging as adults [1, 3]: 799
- Female progeny emerging as adults [1, 4]: 14
- Male progeny emerging as adults [1, 4]: 1218
- Female progeny emerging as adults [1, 5]: 0
- Male progeny emerging as adults [1, 5]: 749
- Female progeny emerging as adults [1, 6]: 7
- Male progeny emerging as adults [1, 6]: 1386
- Female progeny emerging as adults [1, 7]: 0
- Male progeny emerging as adults [1, 7]: 744
- Females, adult progeny (bnk-tTa × tRe-Nipp1Dm; [8]): 58
- Males, adult progeny (bnk-tTa × tRe-Nipp1Dm; [8]): 60
- Females, adult progeny (bnk-tTa × tRe-Nipp1Dm; [9]): 82
- Males, adult progeny (bnk-tTa × tRe-Nipp1Dm; [9]): 78
